The text below walks through data of PMC7717616, “A nanobody-derived mimotope against VEGF inhibits cancer angiogenesis” (Journal of Enzyme Inhibition and Medicinal Chemistry, 2020).

Assay [1] deals with HUVEC cells. As to the kind of experiment: MTT assay, inhibition of HUVEC proliferation. It counts as cell-based. As to conditions: for IC50: HUVEC growth; for inhibition of cell growth, 24 h / inhibition of cell growth, 48 h: 1000 nM. The method, then:
The HUVEC cell line was purchased from the Pasteur Institute of Iran and was transferred in DMEM media enriched with 10% Foetal Bovine Serum (FBS, Gibco). The cells were then added into T25 cell culture flasks and incubated at a temperature of 37 °C in the presence of 5% CO2. After 3–5 days, confluency of the cells was assessed. At 90% of confluency, cells were removed from the flask by trypsin treatment until their use in following experiments.
About 10^4 of HUVEC cells were suspended in […] of culture media enriched with 2% FBS, and were then transferred to 96-well plates, followed by an incubation at a temperature of 37 °C for 2 h. After incubation at a temperature of 37 °C in the presence of 5% CO2, various concentrations of nanobody and peptide (0–1000 nM) were added to cells, followed by an incubation for 24 and 48 h, respectively. Bevacizumab was used as positive control. After incubation, an MTT (3–(4,5-Dimethylthiazol-2-yl)-2,5-Diphenyltetrazolium Bromide) solution was added to each well and incubated for 4 h. Thereafter, MTT was removed and DMSO (dimethylsulfoxide) was added to the wells. Plates were incubated on shaker for 30 min, and optical densities (OD) were then measured using a spectrophotometer (Epoch).
(§1) Prism 5.0 Software (GraphPad, San Diego, CA) was used for statistical analysis. T test was performed for comparison between two groups. The statistical were considered significant when p values < .05.

The subject of assay [2] is HUVEC cells. As to the kind of experiment: Tube formation assay with HUVEC cells and VEGF. As to conditions: HUVEC on Geltrex, nanobody/peptide 1000 nM, VEGF 50 ng/ml, 4–8 h, 37 °C; control with VEGF alone formed complete tubes; Image J. It counts as cell-based. The method, then: About 50 µl of Geltrex LDEV lacking growth factor (Gibco, Invitrogen) were added to 96-well plate followed by a 30–60 min period of incubation at a temperature of 37 °C. One thousands nM of nanobody and peptide were added in two separate microtubes. Then, 50 ng/ml of VEGF were added to the tubes and incubated at a temperature of 37 °C for 1 h. Bevacizumab was as positive control. About 10^4 of HUVEC cells with DMEM culture media plus each microtube’s mixture were seeded in 96-well plates containing Geltrex. Plates were incubated for 4–8 h (temperature of 37 °C in the presence of 5% CO2). After incubation, cells were assessed according to their conditions of tube formation, and tube-like structures analysed by Image J software.
as §1

Setting [3] is: 0–1000 nM, 24 h, read-out: IC50 (24 h).
Where [4] appears, read: 0–1000 nM, 48 h, read-out: IC50 (48 h).

Where two headings read alike, the source gives them in different places. Square brackets hold non-standard residues; d marks the D form. Ends that are not written are not given here. Abu = CC[C@H](N)C(=O)O

On to “YY[Abu]AARAWSPYSSTVDAGDFRYWGQ-NH2 [peptide, designed 25-mer peptide from the CDR3 region of the VEGF nanobody]”, for which the IC50 (in general, the concentration that inhibits the measured activity by half) in assay [1] (setting [3]) was 350 nM; in assay [1] (setting [4]), 200 nM. In assay [1] (HUVEC, 0–1000 nM), the “dose dependence of inhibition of cellular proliferation (in words)” value is “dose dependent”. Also, in assay [1] (HUVEC, 24 h), the “inhibition of cell growth, 24 h” value was found to be 77%. Moreover, the “inhibition of cell growth, 48 h” value in assay [1] (HUVEC, 48 h) is recorded as 91%. In addition, the “time dependence of effect (in words)” value in assay [1] (HUVEC, 24 and 48 h) is on record as “time dependent”. The tube-like structures formed in assay [2] was determined as 35%.
With “Bevacizumab: Bevacizumab (positive control)”, the IC50 in assay [1] (setting [3]) came to 200 nM; in assay [1] (setting [4]), 150 nM. Further, in assay [1] (HUVEC, 24 h), the “inhibition of cell growth, 24 h” value came out at 87%. In addition, in assay [1] (HUVEC, 48 h), the “inhibition of cell growth, 48 h” value was determined as 97%. Moreover, the tube-like structures formed in assay [2] was determined as 20%.
